Source: ChEMBL document CHEMBL3352433, “Class II but Not Second Class-Prospects for the Development of Class II PI3K Inhibitors” (ACS Med Chem Lett, 2015)

Legend:
[1] = target: Phosphatidylinositol 4-phosphate 3-kinase C2 domain-containing subunit beta (Homo sapiens, UniProt O00750); experiment: Inhibition of human PI3KC2beta by non-radiometric ADP-Glo assay
[2] = target: Serine/threonine-protein kinase mTOR (Homo sapiens, UniProt P42345); experiment: Inhibition of human mTOR by non-radiometric ADP-Glo assay
[3] = target: Phosphatidylinositol 4-phosphate 3-kinase C2 domain-containing subunit alpha (Homo sapiens, UniProt O00443); experiment: Inhibition of human PI3KC2alpha by non-radiometric ADP-Glo assay
[4] = Inhibition of human class 1 PI3K by non-radiometric ADP-Glo assay
[5] = Inhibition of human class 4 PI3K by non-radiometric ADP-Glo assay
[6] = target: DNA-dependent protein kinase catalytic subunit (Homo sapiens, UniProt P78527); experiment: Inhibition of human DNA-PK by non-radiometric ADP-Glo assay
Sequence of DNA-dependent protein kinase catalytic subunit (P78527 whole entry): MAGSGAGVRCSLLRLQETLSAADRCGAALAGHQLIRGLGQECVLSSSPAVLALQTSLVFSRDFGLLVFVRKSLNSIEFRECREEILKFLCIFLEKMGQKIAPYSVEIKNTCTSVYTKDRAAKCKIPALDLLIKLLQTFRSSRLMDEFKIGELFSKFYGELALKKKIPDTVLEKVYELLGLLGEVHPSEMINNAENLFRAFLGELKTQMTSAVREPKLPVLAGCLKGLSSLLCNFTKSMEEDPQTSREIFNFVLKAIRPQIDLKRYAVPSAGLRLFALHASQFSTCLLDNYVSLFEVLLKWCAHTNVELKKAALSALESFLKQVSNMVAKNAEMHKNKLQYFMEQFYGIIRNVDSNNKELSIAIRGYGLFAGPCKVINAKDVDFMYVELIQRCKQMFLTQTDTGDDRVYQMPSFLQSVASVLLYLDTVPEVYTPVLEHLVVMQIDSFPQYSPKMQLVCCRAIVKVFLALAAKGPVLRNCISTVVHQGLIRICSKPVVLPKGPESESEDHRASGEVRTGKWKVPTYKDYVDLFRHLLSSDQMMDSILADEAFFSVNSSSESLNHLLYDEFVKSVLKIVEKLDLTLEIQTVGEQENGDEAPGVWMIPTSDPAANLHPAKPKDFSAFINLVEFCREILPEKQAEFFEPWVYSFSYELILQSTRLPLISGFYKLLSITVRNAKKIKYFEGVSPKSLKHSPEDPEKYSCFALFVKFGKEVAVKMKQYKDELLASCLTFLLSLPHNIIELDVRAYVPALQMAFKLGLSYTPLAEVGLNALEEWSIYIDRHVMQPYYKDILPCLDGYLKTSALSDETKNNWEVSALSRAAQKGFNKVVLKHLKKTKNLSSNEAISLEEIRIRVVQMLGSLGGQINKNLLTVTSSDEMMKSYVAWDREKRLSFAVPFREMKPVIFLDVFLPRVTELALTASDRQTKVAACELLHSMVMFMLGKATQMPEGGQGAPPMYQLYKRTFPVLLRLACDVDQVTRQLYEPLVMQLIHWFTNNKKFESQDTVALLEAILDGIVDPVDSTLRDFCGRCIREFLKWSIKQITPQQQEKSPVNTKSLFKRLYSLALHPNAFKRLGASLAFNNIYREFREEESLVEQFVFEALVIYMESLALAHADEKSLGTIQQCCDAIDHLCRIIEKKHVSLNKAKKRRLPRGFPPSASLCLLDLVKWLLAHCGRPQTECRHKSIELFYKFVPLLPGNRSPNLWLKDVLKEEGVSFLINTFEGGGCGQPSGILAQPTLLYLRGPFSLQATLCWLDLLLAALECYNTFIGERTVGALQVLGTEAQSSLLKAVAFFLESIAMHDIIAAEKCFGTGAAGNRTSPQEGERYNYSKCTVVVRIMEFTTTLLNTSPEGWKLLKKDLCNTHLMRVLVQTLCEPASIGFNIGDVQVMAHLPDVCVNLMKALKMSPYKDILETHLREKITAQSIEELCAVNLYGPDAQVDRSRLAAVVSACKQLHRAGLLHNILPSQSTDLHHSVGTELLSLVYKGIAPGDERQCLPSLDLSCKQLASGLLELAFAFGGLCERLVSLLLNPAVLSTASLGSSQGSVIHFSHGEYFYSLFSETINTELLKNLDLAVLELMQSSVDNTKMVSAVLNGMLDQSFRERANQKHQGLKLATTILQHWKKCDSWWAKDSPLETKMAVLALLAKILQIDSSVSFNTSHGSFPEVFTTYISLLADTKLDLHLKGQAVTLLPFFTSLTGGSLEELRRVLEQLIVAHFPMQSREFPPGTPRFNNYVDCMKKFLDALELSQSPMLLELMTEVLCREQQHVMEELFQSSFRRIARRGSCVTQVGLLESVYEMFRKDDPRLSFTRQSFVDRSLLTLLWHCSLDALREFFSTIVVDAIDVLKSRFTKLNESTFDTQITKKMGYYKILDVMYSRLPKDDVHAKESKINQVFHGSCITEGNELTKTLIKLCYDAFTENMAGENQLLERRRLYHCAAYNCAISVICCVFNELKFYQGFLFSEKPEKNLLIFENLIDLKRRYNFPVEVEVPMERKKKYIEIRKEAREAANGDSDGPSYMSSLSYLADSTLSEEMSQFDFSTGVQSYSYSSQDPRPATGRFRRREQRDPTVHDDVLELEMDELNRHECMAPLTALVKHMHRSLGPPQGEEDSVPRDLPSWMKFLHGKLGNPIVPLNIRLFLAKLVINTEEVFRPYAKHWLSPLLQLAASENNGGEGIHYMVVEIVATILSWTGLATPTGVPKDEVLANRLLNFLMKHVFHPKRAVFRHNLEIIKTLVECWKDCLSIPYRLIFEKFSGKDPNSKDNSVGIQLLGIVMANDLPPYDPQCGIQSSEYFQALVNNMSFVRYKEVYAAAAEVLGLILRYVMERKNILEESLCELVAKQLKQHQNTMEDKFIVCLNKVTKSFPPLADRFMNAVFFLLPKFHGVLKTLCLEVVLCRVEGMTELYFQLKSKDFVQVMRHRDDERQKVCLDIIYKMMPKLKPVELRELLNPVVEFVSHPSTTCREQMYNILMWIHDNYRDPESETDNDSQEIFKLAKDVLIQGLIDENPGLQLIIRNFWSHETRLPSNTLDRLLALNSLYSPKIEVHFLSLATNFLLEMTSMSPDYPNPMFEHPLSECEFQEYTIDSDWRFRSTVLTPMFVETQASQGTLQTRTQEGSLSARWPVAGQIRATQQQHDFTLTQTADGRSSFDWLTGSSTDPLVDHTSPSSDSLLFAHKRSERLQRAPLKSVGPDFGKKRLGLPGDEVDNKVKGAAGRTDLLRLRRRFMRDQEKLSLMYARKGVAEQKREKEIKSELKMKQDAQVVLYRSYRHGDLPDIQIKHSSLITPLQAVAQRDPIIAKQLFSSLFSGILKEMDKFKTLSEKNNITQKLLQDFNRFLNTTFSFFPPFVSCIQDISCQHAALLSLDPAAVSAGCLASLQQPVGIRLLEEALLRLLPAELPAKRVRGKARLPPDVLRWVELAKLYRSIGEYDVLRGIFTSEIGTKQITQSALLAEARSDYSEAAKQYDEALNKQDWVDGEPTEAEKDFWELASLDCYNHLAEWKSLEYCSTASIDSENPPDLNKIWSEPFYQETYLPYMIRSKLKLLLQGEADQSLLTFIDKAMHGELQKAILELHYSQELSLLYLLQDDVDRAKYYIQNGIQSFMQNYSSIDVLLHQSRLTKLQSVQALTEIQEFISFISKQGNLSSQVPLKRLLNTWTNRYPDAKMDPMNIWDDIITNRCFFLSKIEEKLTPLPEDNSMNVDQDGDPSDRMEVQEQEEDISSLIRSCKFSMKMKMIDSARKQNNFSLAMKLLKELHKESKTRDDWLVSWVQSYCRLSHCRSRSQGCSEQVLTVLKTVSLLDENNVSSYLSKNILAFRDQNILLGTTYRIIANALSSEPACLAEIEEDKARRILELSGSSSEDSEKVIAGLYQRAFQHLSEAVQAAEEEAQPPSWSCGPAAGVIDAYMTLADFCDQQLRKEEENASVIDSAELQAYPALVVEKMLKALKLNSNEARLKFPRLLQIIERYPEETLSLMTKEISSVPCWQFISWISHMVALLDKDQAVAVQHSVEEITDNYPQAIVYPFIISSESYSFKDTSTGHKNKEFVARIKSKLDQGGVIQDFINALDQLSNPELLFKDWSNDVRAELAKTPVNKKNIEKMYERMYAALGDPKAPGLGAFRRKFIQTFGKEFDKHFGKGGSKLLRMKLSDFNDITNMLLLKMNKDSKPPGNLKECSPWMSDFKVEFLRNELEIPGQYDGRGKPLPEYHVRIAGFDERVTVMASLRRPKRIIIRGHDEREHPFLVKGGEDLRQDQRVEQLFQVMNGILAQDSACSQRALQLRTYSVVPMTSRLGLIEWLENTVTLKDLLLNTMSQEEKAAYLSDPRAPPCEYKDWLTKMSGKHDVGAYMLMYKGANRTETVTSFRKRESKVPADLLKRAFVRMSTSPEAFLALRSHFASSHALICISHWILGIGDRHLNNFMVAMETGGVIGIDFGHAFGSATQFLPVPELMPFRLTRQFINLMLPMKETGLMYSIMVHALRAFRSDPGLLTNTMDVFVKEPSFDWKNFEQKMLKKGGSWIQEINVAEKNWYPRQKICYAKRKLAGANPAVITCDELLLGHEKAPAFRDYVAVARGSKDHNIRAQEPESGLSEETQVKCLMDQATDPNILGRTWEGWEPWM

IC50 [1]	IC50 [2]	IC50 [3]	IC50 [6]	SMILES	IC50 [4]	IC50 [5]
180 nM	370 nM	> 100 µM		FC(F)c1nc2ccccc2n1-c1nc(N2CCOCC2)nc(N2CCOCC2)n1 [ZSTK-474]		
64 nM		0.047 µM	13 nM	COc1ccc2c(c1OC)N=C(NC(=O)c1cccnc1)N1CCN=C21		
10400 nM	3900 nM	27 µM		O=c1cc(N2CCOCC2)oc2c(-c3ccccc3)cccc12 [LY-294002]		
370 nM		0.14 µM	1500 nM	O=C1NC(=S)S/C1=C/c1ccc2c(c1)N(Cc1ccc(F)c(Cl)c1)C(=O)CO2		
140 nM		16 µM	64 nM	CC(=O)Nc1nc(C)c(-c2ccc(Cl)c(S(=O)(=O)NCCO)c2)s1		
		1 µM		Oc1cccc(-c2nc(N3CCOCC3)c3oc4ncccc4c3n2)c1 [PI-103]		
> 1000 nM				CC[C@H](Nc1ncnc2[nH]cnc12)c1nc2cccc(F)c2c(=O)n1-c1ccccc1 [IDELALISIB]		
		> 100 µM		CS(=O)(=O)N1CCN(Cc2cc3nc(-c4cccc5[nH]ncc45)nc(N4CCOCC4)c3s2)CC1 [PICTILISIB]		
630 nM				CC(=O)Nc1ccc2nc(-c3cccc(NS(=O)(=O)c4ccccc4)c3)nc(N3CCOCC3)c2c1	> 10 µM	> 100 µM

SMILES	IC50 [1]	IC50 [2]	IC50 [3]	IC50 [6]	IC50 [4]	IC50 [5]
CC(=O)Nc1ccc2nc(-c3cccc(NS(=O)(=O)c4cccc5ccccc45)c3)nc(N3CCOCC3)c2c1	530 nM				> 10 µM	> 100 µM
